Assay results taken from patent publication US20220267394A1, “COMPOUNDS FOR INDUCING TISSUE FORMATION AND USES THEREOF” (HISTIDE AG, priority 2015, published 2022).
Where no end group is shown, it is not given here.

Tests used:
hMSCs [1] = experiment: Loss of stemness: STRO-1 expression by immunostaining; assay type: cell-based, human; conditions: Table 8, SEQ ID NO: 1 to 49 tested in combination with a bioactive carrier (titanium, ceramics, collagen, etc.)
In short: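 hMSCs cultured on plastic with GFR-binding peptides in solution (some sequences tested with a bioactive carrier), then fixed, permeabilized and immunostained for Stro-1. Stro-1-positive contact number and area quantified by thresholded image analysis, minimum 30 cells per condition.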

hMSCs [2] = experiment: Cartilage regeneration: chondrocyte differentiation of hMSCs on 14 kPa hydrogels (Sox9, Aggrecan); assay type: cell-based, human; conditions: 14 kPa hydrogels covalently modified with peptides, 96 hours
Procedure: Total RNA was extracted by using the RNeasy total RNA kit (Qiagen®) according to the manufacturer's instructions. Purified total RNA was used as a template in order to make cDNA by a reverse transcription reaction (Gibco Brl®) with random primers (Invitrogen®). The cDNA was then used as a template for a real-time PCR amplification in the presence of SYBR green reagents (Bio-Rad®) by using a thermocycler (iCycler, Biorad®). Data were analyzed with the iCycler IQ™® software and compared by the ΔΔCt method. […]
Total RNA was extracted by using the RNeasy Mini Kit (Qiagen) and […] RNA was used for cDNA synthesis with AMV kit (Invitrogen®) according to the manufacturer' instructions. Semi-quantitative reverse transcriptase-polymerase chain reaction (RT-PCR) was performed with Taq DNA Polymerase (Invitrogen®) in a thermocycler (Bio-Rad®). […] The PCR products were analyzed on 2% agarose gels. For the Aggrecan gene, the PCR bands were densitometrically quantified by using the BioCapt software (Vilber). […]
It was then verified that these hMSCs cultured on the covalently modified hydrogels were differentiated into chondrocyte cells by analyzing the expression of the chondrocyte gene biomarker: Aggrecan. […] For that a semi-quantitative RT-PCR was performed as described in the Methods section for the Aggrecan gene and a Quantitative Real Time PCR for Sox9.

Hair Follicle Stem Cells = experiment: Loss of quiescence and activation of hair follicle stem cells on 73 kPa hydrogels (Sox2, BMP-6 release); assay type: cell-based, mouse; conditions: 73 kPa hydrogels covalently modified with peptides
Description: The following starting materials and reagents were used: • Apatite ceramics (also called apatite or ceramic in the present invention) were synthetized as described in Mater Res. 2004; 7(4): 625-630. • Titanium was obtained from Goodfellow®. • Hydrogel (poly(acrylamide-co-acrylic acid) gel) was synthetized as described in Langmuir 2011; 27(22):13635-42. • PEEK was obtained from Goodfellow®. • PET (Poly(ethylene terephthalate) was obtained from Goodfellow®. • Type-I collagen sponge was obtained from Sigma®. • Hexane was obtained from Sigma®. • 3-succinimidyl-3-maleimidopropionate (SMP) was obtained from Sigma®. • DMF was obtained from Sigma®. • PBS 1× was obtained from Gibco®. • 3-(ethoxydimethylsilyl)propylamine was obtained from Sigma®. • Ammonium persulfate was obtained from Biorad®. • N,N,N′,N′-tetramethylethylenediamine was obtained from Aldrich®. • Acrylamid was obtained from Merck®. • Acrylic acid was obtained from Merck®. • N,N-methylene-bis-acrylamide was obtained from Merck®. • NaOH was obtained from Aldrich®. • N,N,N′,N′-tetramethylethylenediamine was obtained from Aldrich®. • Dimethylaminopropyl-3-ethylcarbodiimide hydrochloride was obtained from Aldrich®. • N-hydroxysuccinimide was obtained from Aldrich®. • 2-(N-morpholino)-ethane sulfonic acid was obtained from Aldrich®. • MilliQ water: is water characterised in terms of resistivity (typically 18.2 MΩ·cm at 25° C.). • Low glucose Dulbecco's Modified Eagle Medium (DMEM) was obtained from Invitrogen® • Minimum Essential Medium Eagle without ascorbic acid (αMEM) was obtained from Invitrogen®. • All of the cell culture experiments were carried out without any serum in the medium for the first 8 hours of culture. • Osteoblast progenitors or precursor osteoblasts: MC3T3-E1 cells were obtained from ATCC®. These cells were cultured in Alpha-MEM medium supplemented with 10% fetal calf serum (FCS) and 1% penicillin/streptomycin. All cells were used at a low passage number (passage 7), were subconfluently cultured and were seeded at 10^4 cells/cm^2 for the purpose of the experiments. • Human bone marrow Mesenchymal Stem Cells (hMSCs) were obtained from Lonza®. These cells were cultured in Alpha-MEM supplemented with 10% (v/v) FBS and 1% penicillin/streptomycin and incubated in a humidified atmosphere containing 5% (v/v) CO2 at 37° C. All cells were used at a low passage number (passage 2 to 4), were subconfluently cultured and were seeded at 10^4 cells/cm^2 for the purpose of the experiments. • Human adipose Mesenchymal Stem Cells (haMSCs) were obtained from Lonza®. These cells were cultured in Alpha-MEM supplemented with 10% (v/v) FBS and 1% penicillin/streptomycin and incubated in a humidified atmosphere containing 5% (v/v) CO2 at 37° C. […]

[3] = system: Human Hematopoeitic Stem Cells; experiment: Differentiation of human hematopoietic stem cells: CD34+ expression by immunostaining; assay type: cell-based; conditions: peptides in solution in the cell culture media, 400 ng/mL, 48 hours
Description: The following starting materials and reagents were used: • Apatite ceramics (also called apatite or ceramic in the present invention) were synthetized as described in Mater Res. 2004; 7(4): 625-630. • Titanium was obtained from Goodfellow®. • Hydrogel (poly(acrylamide-co-acrylic acid) gel) was synthetized as described in Langmuir 2011; 27(22):13635-42. • PEEK was obtained from Goodfellow®. • PET (Poly(ethylene terephthalate) was obtained from Goodfellow®. • Type-I collagen sponge was obtained from Sigma®. • Hexane was obtained from Sigma®. • 3-succinimidyl-3-maleimidopropionate (SMP) was obtained from Sigma®. • DMF was obtained from Sigma®. • PBS 1× was obtained from Gibco®. • 3-(ethoxydimethylsilyl)propylamine was obtained from Sigma®. • Ammonium persulfate was obtained from Biorad®. • N,N,N′,N′-tetramethylethylenediamine was obtained from Aldrich®. • Acrylamid was obtained from Merck®. • Acrylic acid was obtained from Merck®. • N,N-methylene-bis-acrylamide was obtained from Merck®. • NaOH was obtained from Aldrich®. • N,N,N′,N′-tetramethylethylenediamine was obtained from Aldrich®. • Dimethylaminopropyl-3-ethylcarbodiimide hydrochloride was obtained from Aldrich®. • N-hydroxysuccinimide was obtained from Aldrich®. • 2-(N-morpholino)-ethane sulfonic acid was obtained from Aldrich®. • MilliQ water: is water characterised in terms of resistivity (typically 18.2 MΩ·cm at 25° C.). • Low glucose Dulbecco's Modified Eagle Medium (DMEM) was obtained from Invitrogen® • Minimum Essential Medium Eagle without ascorbic acid (αMEM) was obtained from Invitrogen®. • All of the cell culture experiments were carried out without any serum in the medium for the first 8 hours of culture. • Osteoblast progenitors or precursor osteoblasts: MC3T3-E1 cells were obtained from ATCC®. These cells were cultured in Alpha-MEM medium supplemented with 10% fetal calf serum (FCS) and 1% penicillin/streptomycin. All cells were used at a low passage number (passage 7), were subconfluently cultured and were seeded at 10^4 cells/cm^2 for the purpose of the experiments. • Human bone marrow Mesenchymal Stem Cells (hMSCs) were obtained from Lonza®. These cells were cultured in Alpha-MEM supplemented with 10% (v/v) FBS and 1% penicillin/streptomycin and incubated in a humidified atmosphere containing 5% (v/v) CO2 at 37° C. All cells were used at a low passage number (passage 2 to 4), were subconfluently cultured and were seeded at 10^4 cells/cm^2 for the purpose of the experiments. • Human adipose Mesenchymal Stem Cells (haMSCs) were obtained from Lonza®. These cells were cultured in Alpha-MEM supplemented with 10% (v/v) FBS and 1% penicillin/streptomycin and incubated in a humidified atmosphere containing 5% (v/v) CO2 at 37° C. All cells were used at a low passage number (passage 3 to 4), were subconfluently cultured and were seeded at 10^4 cells/cm^2 for the purpose of the experiments. • Mouse Hair Follicle Stem Cells were isolated and cultured as described in Methods Mol Biol. 2010; 585:401-20. • Neuron cells are Neuronal Schwann Cells obtained from ATCC®. These cells were cultured in Dulbecco's Modified Eagle's Medium supplemented with 10% (v/v) FBS and 1% penicillin/streptomycin and incubated in a humidified atmosphere containing 5% (v/v) CO2 at 37° C. All cells were used at a low passage number (passage 6-8), were subconfluently cultured and were seeded at 10^4 cells/cm^2 for the purpose of the experiments. • Human umbilical-vein endothelial cells (HUVECs) were purchased from Promocell®. HUVECs were isolated and grown on gelatin coated culture flasks in a complete HUVEC culture medium (IMDM (Invitrogen, France) supplemented with 20% (v/v) fetal bovine serum (FBS) (PAA, France) and 0.4% (v/v) EC growth supplement/heparin kit (Promocell, France)). Cells were subcultured by using trypsin/EDTA (Invitrogen, France) and maintained in a humidified atmosphere containing 5% CO2 at 37° C. These cells were used at a passage number 3 to 5 for the purpose of the experiments. […]

Substance	CD34+ Expression (%) [3] [%]	also measured
37 (CASAAPSSVPQALEPLPIVYYVGRTPKVEQLSNMIVRSSK; not fully specified; ends and bridges not checked) [compound 37]	–	STRO-1 expression (%) (hMSCs [1]): 21%; Sox9 protein expression (hMSCs [2]): expression of the Sox9 protein was observed
42 (CGIPEPSSVPEKTSSLSLLFFDENKNVVLKVYPNM; not fully specified; ends and bridges not checked) [compound 42]	–	STRO-1 expression (%) (hMSCs [1]): 28%; BMP-6 release in the cell culture medium (Hair Follicle Stem Cells): decrease; Sox2 protein expression (Hair Follicle Stem Cells): increase
2147 (IPKASSAPVGQRPVQMRKIDKGVVTYKKATVSSVEESGSL; GFR-binding peptide) [compound 2147]	27	–
2148 (KASSVPQEERPVQMRKIGGGGGGGKKATVMIVRSSKSS; GFR-binding peptide) [compound 2148]	32	–
2149 (VSQAARPVQTRKIDDMGVPTKKATVAAVKS; GFR-binding peptide) [compound 2149]	28	–
2150 (PTSSAPTDLRSVKMAKVEIVRKKPIFKEVQVDMVVKASGSH; GFR-binding peptide) [compound 2150]	26	–
2151 (PTSSVPTGGRSVKMAKVDKGVVTYKEVQVMVVAESKSS; GFR-binding peptide) [compound 2151]	24	–
2152 (IPKASSVPQSSSNITMQIMGGGGGGGIGEMSSSVKSSGSL; GFR-binding peptide) [compound 2152]	30	–
2153 (KASSSRVKMSNITVQIMRIKPHQGQHIGEMSVVEEHASGSH; GFR-binding peptide) [compound 2153]	22	–
2154 (VPTAAEPLTMLYYEIVRKKPIFEQLSNMVEHS; GFR-binding peptide) [compound 2154]	21	–
2155 (EPSSSRVRLEPLTTLYYGGGGGGGEQLSNVVEEHSKSS; GFR-binding peptide) [compound 2155]	29	–
